Measured values as given in ChEMBL document CHEMBL1201862, “PubChem BioAssay data set” (2004).
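Results reflect a 48-hour exposure of cells in 96-well plates to compound at five concentrations. Here, GI50 denotes the concentration required for 50% inhibition of growth.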 The source made the active and inactive calls. No stated cut-off is given here; in the data, active = GI50 up to about 1.1 µM and inactive = higher.

Columns and labels:
Experiment in all cases: inhibition of tumour cell growth, NCI panel, 48 h
A498 = test system: A498
BT-549 = test system: BT-549
HCC 2998 = test system: HCC 2998
K562 = test system: K562
SK-OV-3 = test system: SK-OV-3
CAKI-1 = test system: CAKI-1
SF-268 = test system: SF-268
OVCAR-3 = test system: OVCAR-3
U-251 = test system: U-251
MCF7 = test system: MCF7
KM12 = test system: KM12
OVCAR-8 = test system: OVCAR-8
SK-MEL-2 = test system: SK-MEL-2
SF-539 = test system: SF-539
HL-60 = test system: HL-60
MDA-MB-435 = test system: MDA-MB-435
OVCAR-4 = test system: OVCAR-4
NCI-H522 = test system: NCI-H522
786-0 = test system: 786-0
SF-295 = test system: SF-295
Hs-578T = test system: Hs-578T
HT-29 = test system: HT-29
NCI-H460 = test system: NCI-H460
UO-31 = test system: UO-31
SN12C = test system: SN12C
HCT-116 = test system: HCT-116
RPMI-8226 = test system: RPMI-8226
SNB-19 = test system: SNB-19
SK-MEL-28 = test system: SK-MEL-28
MDA-N = test system: MDA-N
PC-3 = test system: PC-3
EKVX = test system: EKVX
HOP-62 = test system: HOP-62
SR = test system: SR
UACC-257 = test system: UACC-257
COLO 205 = test system: COLO 205
Malme-3M = test system: Malme-3M
NCI-H226 = test system: NCI-H226
MDA-MB-231 = test system: MDA-MB-231
NCI-H23 = test system: NCI-H23
TK-10 = test system: TK-10
SK-MEL-5 = test system: SK-MEL-5
M14 = test system: M14
MOLT-4 = test system: MOLT-4
NCI/ADR-RES = test system: NCI/ADR-RES
UACC-62 = test system: UACC-62
IGROV-1 = test system: IGROV-1
SNB-75 = test system: SNB-75
LOX IMVI = test system: LOX IMVI
SW-620 = test system: SW-620
HCT-15 = test system: HCT-15
DU-145 = test system: DU-145
ACHN = test system: ACHN
RXF 393 = test system: RXF 393
CCRF-CEM = test system: CCRF-CEM
A549 = test system: A549
OVCAR-5 = test system: OVCAR-5
HOP-92 = test system: HOP-92
T47D = test system: T47D

With CCN(CC)CCCNc1nncc2cc3c([nH]c4ccc(OC)cc43)c(C)c12 the GI50 (A498) was 16.4 µM (inactive), the GI50 (BT-549) was 16.3 µM (inactive) and the GI50 (HCC 2998) was 6.1 µM (inactive). The GI50 (K562) was 3.34 µM (inactive), the GI50 (SK-OV-3) was 9.64 µM (inactive) and the GI50 (CAKI-1) was 11.5 µM (inactive). The GI50 (SF-268) was 6.65 µM (inactive), the GI50 (OVCAR-3) was 7.05 µM (inactive) and the GI50 (U-251) was 3.69 µM (inactive). The GI50 (MCF7) was 2.56 µM (inactive), the GI50 (KM12) was 4.2 µM (inactive) and the GI50 (OVCAR-8) was 3.98 µM (inactive). For the same molecule, the GI50 (SK-MEL-2) was 17.7 µM (inactive), the GI50 (SF-539) was 3.44 µM (inactive) and the GI50 (HL-60) was < 0.01 µM (active). The GI50 (MDA-MB-435) was 10.8 µM (inactive), the GI50 (OVCAR-4) was 3.27 µM (inactive) and the GI50 (NCI-H522) was 2.7 µM (inactive). The GI50 (786-0) was 4.13 µM (inactive), the GI50 (SF-295) was 12.6 µM (inactive) and the GI50 (Hs-578T) was 10.4 µM (inactive). The GI50 (HT-29) was 3.4 µM (inactive), the GI50 (NCI-H460) was 3.63 µM (inactive) and the GI50 (UO-31) was 11.5 µM (inactive). For the same molecule, the GI50 (SN12C) was 6.12 µM (inactive), the GI50 (HCT-116) was 3.38 µM (inactive) and the GI50 (RPMI-8226) was 6.84 µM (inactive). For the same molecule, the GI50 (SNB-19) was 5.97 µM (inactive), the GI50 (SK-MEL-28) was 15.7 µM (inactive) and the GI50 (MDA-N) was 10.4 µM (inactive). For the same molecule, the GI50 (PC-3) was 4.01 µM (inactive), the GI50 (EKVX) was 15.8 µM (inactive) and the GI50 (HOP-62) was 4.23 µM (inactive). The GI50 (SR) was 4.63 µM (inactive), the GI50 (UACC-257) was 17.6 µM (inactive) and the GI50 (COLO 205) was 7.26 µM (inactive). The GI50 (Malme-3M) was 13.7 µM (inactive), the GI50 (NCI-H226) was 7.41 µM (inactive) and the GI50 (MDA-MB-231) was 7.41 µM (inactive). The GI50 (NCI-H23) was 10.7 µM (inactive), the GI50 (TK-10) was 15.3 µM (inactive) and the GI50 (SK-MEL-5) was 14.7 µM (inactive). The GI50 (M14) was 12.9 µM (inactive), the GI50 (MOLT-4) was 2.3 µM (inactive) and the GI50 (NCI/ADR-RES) was > 100 µM (inactive). The GI50 (UACC-62) was 17.4 µM (inactive), the GI50 (IGROV-1) was 4.14 µM (inactive) and the GI50 (SNB-75) was 9.59 µM (inactive). The GI50 (LOX IMVI) was 3.84 µM (inactive), the GI50 (SW-620) was 4.61 µM (inactive) and the GI50 (HCT-15) was 19.3 µM. For the same molecule, the GI50 (DU-145) was 4.03 µM (inactive), the GI50 (ACHN) was 8.26 µM (inactive) and the GI50 (RXF 393) was 5.81 µM (inactive). For the same molecule, the GI50 (CCRF-CEM) was 2.93 µM (inactive), the GI50 (A549) was 9.82 µM (inactive) and the GI50 (OVCAR-5) was 11.5 µM (inactive). For the same molecule, the GI50 (HOP-92) was 10.1 µM (inactive) and the GI50 (T47D) was 11.8 µM (inactive).
COC1=C2CC(C)CC(OC)[C@@H](OC(=O)CCN)[C@H](C)/C=C(\C)C(OC(N)=O)C(OC)/C=C\C=C(/C)C(=O)NC(=CC1=O)C2=O (stereo partly drawn) was tested, and the GI50 (A498) was 17.3 µM (inactive), the GI50 (BT-549) was 4.91 µM (inactive) and the GI50 (HCC 2998) was 1.91 µM (inactive). The GI50 (K562) was 0.269 µM (active), the GI50 (SK-OV-3) was 12.8 µM (inactive) and the GI50 (CAKI-1) was 4.6 µM (inactive). For the same molecule, the GI50 (SF-268) was 9.06 µM (inactive), the GI50 (OVCAR-3) was 0.843 µM (active) and the GI50 (U-251) was 2.34 µM (inactive). The GI50 (MCF7) was 0.528 µM (active), the GI50 (KM12) was 2.64 µM (inactive) and the GI50 (OVCAR-8) was 1.9 µM (inactive). For the same molecule, the GI50 (SK-MEL-2) was 9.06 µM (inactive), the GI50 (SF-539) was 4.4 µM (inactive) and the GI50 (HL-60) was 0.256 µM (active). For the same molecule, the GI50 (MDA-MB-435) was 0.802 µM (active), the GI50 (OVCAR-4) was 3.03 µM (inactive) and the GI50 (NCI-H522) was 0.255 µM (active). The GI50 (786-0) was 1.05 µM (active), the GI50 (SF-295) was 16.5 µM (inactive) and the GI50 (Hs-578T) was 3.73 µM (inactive). For the same molecule, the GI50 (HT-29) was 0.465 µM (active), the GI50 (NCI-H460) was 11.1 µM (inactive) and the GI50 (UO-31) was 4.54 µM (inactive). For the same molecule, the GI50 (SN12C) was 1.07 µM (active), the GI50 (HCT-116) was 1.82 µM (inactive) and the GI50 (RPMI-8226) was 0.871 µM (active). For the same molecule, the GI50 (SNB-19) was 7.57 µM (inactive), the GI50 (SK-MEL-28) was 0.689 µM (active) and the GI50 (MDA-N) was 0.78 µM (active). For the same molecule, the GI50 (PC-3) was 4.06 µM (inactive), the GI50 (EKVX) was 12 µM (inactive) and the GI50 (HOP-62) was 6.38 µM (inactive). The GI50 (SR) was 1.26 µM (inactive), the GI50 (UACC-257) was 1.43 µM (inactive) and the GI50 (COLO 205) was 0.27 µM (active). The GI50 (Malme-3M) was 0.735 µM (active), the GI50 (NCI-H226) was 20.4 µM (inactive) and the GI50 (MDA-MB-231) was 1.99 µM (inactive). For the same molecule, the GI50 (NCI-H23) was 1.55 µM (inactive), the GI50 (TK-10) was 3.54 µM (inactive) and the GI50 (SK-MEL-5) was 2.92 µM (inactive). The GI50 (M14) was 4.88 µM (inactive), the GI50 (MOLT-4) was 0.483 µM (active) and the GI50 (NCI/ADR-RES) was 16.4 µM (inactive). For the same molecule, the GI50 (UACC-62) was 1.47 µM (inactive), the GI50 (IGROV-1) was 1.29 µM (inactive) and the GI50 (SNB-75) was 20.8 µM (inactive). For the same molecule, the GI50 (LOX IMVI) was 0.897 µM (active), the GI50 (SW-620) was 0.357 µM (active) and the GI50 (HCT-15) was 2.43 µM. The GI50 (DU-145) was 8.57 µM (inactive), the GI50 (ACHN) was 0.773 µM (active) and the GI50 (RXF 393) was 1.56 µM (inactive). For the same molecule, the GI50 (CCRF-CEM) was 0.343 µM (active), the GI50 (A549) was 15.7 µM (inactive) and the GI50 (OVCAR-5) was 8.57 µM (inactive). For the same molecule, the GI50 (HOP-92) was 0.697 µM (active) and the GI50 (T47D) was 0.486 µM (active).
